The results in this text go back to US12410124B2 (priority 2019, dated 2025).

Read-outs that look alike come from different tables or passages of the source.

The test system of the assay is fetal rat midbrain neurons. Nature of the assay: Survival rate of primary midbrain neurons induced by MPP+ (CCK-8). It counts as cell-based. The following applies: for viability at 5 µM / viability at 10 µM / viability at 20 µM: Rattus norvegicus, Neuron, read-out: Survival rate (%); for survival rate compared with the styryl sulfone prototype compounds: no concentration stated. The text has this: The main pathological feature of Parkinson's disease (PD) lies in the degeneration and loss of dopaminergic neuron in the substantia nigra-striatum of the midbrain. 1-Methyl-4-phenylpyridinium (MPP+) has a high affinity to dopamine carriers and a selective toxicity on dopaminergic neurons. Thus, MPP+ is one of the most ideal classic neurotoxins for establishing PD cell models. The primary cell culture of fetal rat midbrain is often used to establish PD cell models in recent years. Although it is more cumbersome and has higher technical requirements than cell line culture, it is closer to the pathological characteristics of PD. Thus, a PD cell model is established using neurons from the primary cell culture of fetal rat midbrain under MPP+ induction, to evaluate the protective effect of target compounds on the model neurons.
The midbrain was separated from a fetal rat of a 15-day-pregnant SD rat and cut into pieces, then subjected to trypsin digestion, pipetting, screen filtration, and resuspension steps, and inoculated in a 24-well cell culture plate pre-coated with poly-D-lysine. 12 hours after culture, cytarabine was added to inhibit the growth of glial cells. On the 5th day of neuron growth, the toxin MPP+ can be added to make a PD cell model. When detecting the activity of a target compound, the target compound was pre-incubated with midbrain neurons for 3 h, then MPP+ was added, and after 48 h co-incubation the neuronal viability was detected by CCK-8 method and the neuronal survival rate was calculated to evaluate the inhibitory activity of the target compound on the midbrain neuronal PD damage. The experiment included blank control group, MPP+ model group, positive control group (caffeic acid phenethyl ester, CAPE), prototype control group (styryl sulfone compounds 3B, 3C, 3D, and 3G), and target compound group (prepared according to Examples 1-22 in the invention).

[1] abbreviates: 5 μM, 3 h pre-incubation, 48 h with MPP+.
The mark [2] stands for this setting: 10 μM, 3 h pre-incubation, 48 h with MPP+.
Where [3] appears, read: 20 μM, 3 h pre-incubation, 48 h with MPP+.

With `O=S(=O)(/C=C/c1ccc(O)c(O)c1)Cc1ccc(C(F)(F)F)cc1` [Compound 3B, (E)-4-{2-[(4-trifluoromethylphenyl)mesyl]ethenyl}benzene-1,2-diol, reference compound], the viability at 5 µM under setting [1] is 65.9 ± 1.47%. The viability at 10 µM under setting [2] was 76.4 ± 6.54%. The viability at 20 µM under setting [3] is 84.9 ± 2.65%.
Turning to `O=S(=O)(/C=C/c1ccc(O)c(O)c1)CCCc1ccccc1` [Compound 3C, (E)-4-{2-[(3-phenylpropyl)sulfonyl]ethenyl}benzene-1,2-diol, reference compound], the viability at 5 µM under setting [1] was found to be 61.3 ± 3.22%. Further, under setting [2], the viability at 10 µM amounted to 75.7 ± 1.98%. Further, the viability at 20 µM under setting [3] was 74.2 ± 4.55%.
In the same order, the values of `O=S(=O)(/C=C/c1ccc(O)c(O)c1)Cc1ccc(Cl)cc1` [Compound 3D, (E)-4-{2-[(4-chlorophenyl)mesyl]ethenyl}benzene-1,2-diol, reference compound] are 69.5 ± 5.21%, 84.1 ± 1.87% and 91.5 ± 2.32%.
Consider `CC(C)(C)c1ccc(CS(=O)(=O)/C=C/c2ccc(O)c(O)c2)cc1` [Compound 3G, (E)-4-{2-[(4-t-butylphenyl)mesyl]ethenyl}benzene-1,2-diol, reference compound], for which the viability at 5 µM under setting [1] came out at 51.4 ± 3.54%. Further, the viability at 10 µM under setting [2] came out at 68.4 ± 1.89%. In addition, the viability at 20 µM under setting [3] turned out to be 71.2 ± 3.75%.
As for `CC(C)N(c1ccc(CCS(=O)(=O)/C=C/c2ccc(OC(=O)N(C)c3ccc(I)cc3)c(OCCOCc3ccccc3)c2)cc1)C(C)C` [Compound A1-3, (E)-2-(2-benzyloxyethoxy)-4-{2-[4-(N,N-diisopropylamino)phenylethylsulfonyl]ethenyl}phenyl-N-(4-iodophenyl)-N-methylcarbamate], under “48 h”, the viability at 5 µM was determined as 74.3 ± 3.75%, the viability at 10 µM came to 89.7 ± 1.95% and the viability at 20 µM worked out at 94.1 ± 1.87%.
For `CCN(CC)C(=O)Oc1ccc(/C=C/S(=O)(=O)Cc2ccc(C(F)(F)F)cc2)cc1OC(=O)N(CC)CC` [Compound B1-1, (E)-4-{2-[(4-trifluoromethylphenyl)mesyl]ethenyl}-1,2-phenylenebis(diethylcarbamate)], the “survival rate compared with the styryl sulfone prototype compounds” value is on record as “significantly increased”. Further, the viability at 5 µM under setting [1] turned out to be 78.5 ± 4.12%. Also, the viability at 10 µM under setting [2] is 89.7 ± 2.89%. Moreover, the viability at 20 µM under setting [3] came to 93.8 ± 1.59%.
Regarding `CCN(CC)C(=O)Oc1ccc(/C=C/S(=O)(=O)CCCc2ccccc2)cc1OC(=O)N(CC)CC` [Compound C1-1, (E)-4-[2-(3-phenylpropylsulfonyl)ethenyl]-1,2-phenylenebis(diethylcarbamate)], the “survival rate compared with the styryl sulfone prototype compounds” value is “significantly increased”. The viability at 5 µM under setting [1] came to 69.5 ± 3.89%. Further, the viability at 10 µM under setting [2] worked out at 82.2 ± 3.07%. Moreover, the viability at 20 µM under setting [3] was 90.3 ± 2.17%.
`CCN(CC)C(=O)Oc1ccc(/C=C/S(=O)(=O)Cc2ccc(Cl)cc2)cc1OC(=O)N(CC)CC` [Compound D1-1, (E)-4-{2-[(4-chlorophenyl)mesyl]ethenyl}-1,2-phenylenebis(diethylcarbamate)]: the “survival rate compared with the styryl sulfone prototype compounds” value is “significantly increased”. Besides, the viability at 5 µM under setting [1] worked out at 80.3 ± 2.67%. In addition, the viability at 10 µM under setting [2] came out at 94.6 ± 3.76%. Moreover, the viability at 20 µM under setting [3] worked out at 98 ± 1.32%.
Regarding `CC(=O)Oc1ccc(/C=C/S(=O)(=O)Cc2c(F)c(F)c(F)c(F)c2F)cc1OC(=O)NC(=O)c1ccc([N+](=O)[O-])c(C)c1` [Compound D5-4, (E)-2-[N-(3-methyl-4-nitrobenzoyl)carbamoyloxy]-4-{2-[(perfluorophenyl)mesyl]ethenyl}phenyl acetate], the viability at 5 µM under setting [1] came out at 60.5 ± 3.19%. Moreover, the viability at 10 µM under setting [2] turned out to be 73.2 ± 4.53%. Further, under setting [3], the viability at 20 µM is 87.5 ± 2.16%.
For `CNC(=O)Oc1ccc(/C=C/S(=O)(=O)CC(Cl)c2ccc(Cl)c([N+](=O)[O-])c2)cc1O` (stereo not shown) [Compound E2-2, (E)-4-{2-[2-chloro-2-(4-chloro-3-nitrophenyl)ethylsulfonyl]ethenyl}-2-hydroxyphenyl-N-methylcarbamate], for the setting “48 h”, the viability at 5 µM amounted to 58.1 ± 4.27%, the viability at 10 µM was found to be 69.3 ± 2.33% and the viability at 20 µM was determined as 86.1 ± 2.06%.
In the case of `CCN(CC)C(=O)Oc1ccc(/C=C/S(=O)(=O)Cc2ccc(C(C)(C)C)cc2)cc1OC(=O)N(CC)CC` [Compound G1-1, (E)-4-{2-[(4-t-butylphenyl)mesyl]ethenyl}-1,2-phenylenebis(diethylcarbamate)], the “survival rate compared with the styryl sulfone prototype compounds” value was “significantly increased”. In addition, the viability at 5 µM under setting [1] stood at 78.5 ± 3.59%. Further, the viability at 10 µM under setting [2] came out at 85.9 ± 2.67%. The viability at 20 µM under setting [3] was determined as 91.4 ± 1.59%.
On to `CCOC(CS(=O)(=O)/C=C/c1ccc(OC(C)=O)c(OC(=O)Nc2ccc(NC)cc2)c1)C(OCC)c1ccc(OCc2ccccc2)c(O)c1` (stereo not shown) [Compound H2-4, (E)-4-{2-[3-(4-benzyloxy-3-hydroxyphenyl)-2,3-diethoxypropyl]sulfonylethenyl}-2-[N-(4-methylaminophenyl)carbamoyloxy]phenyl acetate], for which the viability at 5 µM under setting [1] stood at 69 ± 4.31%. Also, the viability at 10 µM under setting [2] came to 81.5 ± 3.24%. For the same molecule, the viability at 20 µM under setting [3] came out at 89.4 ± 1.65%.
Regarding `COCCN(C)C(=O)Oc1cc(/C=C/S(=O)(=O)CCc2cccc(-c3ccc(C)o3)c2)ccc1OC(C)=O` [Compound J1-4, (E)-2-[N-(2-methoxyethyl)-N-methylcarbamoyloxy]-4-{2-[3-(5-methylfur-2-yl)phenylethylsulfonyl]ethenyl}phenyl acetate], where the note is “48 h”, the viability at 5 µM stood at 75.2 ± 3.29%, the viability at 10 µM came to 84.8 ± 2.27% and the viability at 20 µM stood at 90.3 ± 2.6%.
Consider `CC(Br)C(Br)COc1cc(/C=C/S(=O)(=O)CCc2ccc(OCC(F)(F)F)cc2)ccc1OC(=O)Nc1ccsc1` (stereo not shown) [Compound K1-3, (E)-2-(2,3-dibromobutoxy)-4-{2-[4-(2,2,2-trifluoroethoxy)phenylethylsulfonyl]ethenyl}phenyl-N-(thien-3-yl)carbamate], for which the viability at 5 µM under setting [1] is 65.4 ± 4.31%. Besides, under setting [2], the viability at 10 µM turned out to be 72.1 ± 2.77%. In addition, the viability at 20 µM under setting [3] is 83.2 ± 1.76%.
Take `C=CCOc1ccc(C/C=C/S(=O)(=O)/C=C/c2ccc(OC(C)=O)c(OC(=O)N(CC=C)CC=C)c2)cc1` [Compound K1-4, 4-{(E)-2-[(E)-3-(4-allyloxyphenyl)prop-1-en-1-yl]sulfonylethenyl}-2-(N,N-diallylcarbamoyloxy)phenyl acetate]: the viability at 5 µM under setting [1] turned out to be 76.7 ± 3.17%. The viability at 10 µM under setting [2] is 87.1 ± 2.56%. Moreover, the viability at 20 µM under setting [3] amounted to 93.2 ± 1.81%.
Taken in the same sequence, the figures for `COc1cc(/C=C/S(=O)(=O)Cc2cc(OC)c(OC)c(OC)c2)ccc1OC(=O)N(c1ccccc1)c1ccccc1` [Compound K3-3, (E)-2-methoxy-4-{2-[(3,4,5-trimethoxyphenyl)mesyl]ethenyl}-phenyl-N,N-diphenylcarbamate] were 62.5 ± 3.58%, 75.5 ± 2.37% and 88.5 ± 1.73%.
In the case of `O=C(NC(=O)C(F)(F)F)Oc1ccc(/C=C/S(=O)(=O)C(F)(F)c2ccc(Oc3ccccn3)cc2)cc1OC(=O)C(F)(F)C(F)(F)F` [Compound L1-4, (E)-5-{2-[(4-[pyridin-2-yl-oxy]phenyl)difluoromethylsulfonyl]ethenyl}-2-[N-(2,2,2-trifluoroacetyl)carbamoyloxy]phenyl-2,2,3,3,3-pentafluoropropionate], under setting [1], the viability at 5 µM came out at 67.5 ± 3.52%. For the same molecule, the viability at 10 µM under setting [2] is 75.4 ± 2.59%. The viability at 20 µM under setting [3] was 86.2 ± 1.86%.
Take `CCN(C)C(=O)Oc1ccc(/C=C/S(=O)(=O)CC(c2ccc(-c3ccc(OC)c(OC)c3)cc2)[N+](=O)[O-])cc1OC(=O)N(C)CC` (stereo not shown) [Compound M1-1, (E)-4-{2-[2-(3′,4′-dimethoxy-[1,1′-biphenyl]-4-yl)-2-nitroethylsulfonyl]ethenyl}-1,2-phenylenebis(N-ethyl-N-methylcarbamate)]: under “48 h”, the viability at 5 µM stood at 82.4 ± 2.54%, the viability at 10 µM came to 89.9 ± 3.67% and the viability at 20 µM amounted to 95.1 ± 1.94%.
`CN(C)c1ccc(CC(=O)Oc2cc(/C=C/S(=O)(=O)C(Br)c3ccc(Cc4ccc(N(C)C)cc4)cc3)ccc2OC(=O)N2CCCC2C(F)(F)F)cc1` (stereo not shown) [Compound M1-5]: the viability at 5 µM under setting [1] was determined as 68.2 ± 4.31%. In addition, the viability at 10 µM under setting [2] worked out at 78.2 ± 3.76%. For the same molecule, the viability at 20 µM under setting [3] turned out to be 86.9 ± 3.08%.
For `Cc1ccc(N2CCN(C(=O)Oc3ccc(/C=C/S(=O)(=O)CCCC(c4ccc(OC(=O)CN(C)C)cc4)N(C)C)cc3OC(=O)N(C)c3ccccc3)CC2)cc1` (stereo not shown) [Compound P1-1, (E)-4-{2-[4-(dimethylamino)-4-(4-(N,N-dimethylglycyloxy)phenyl)butylsulfonyl]ethenyl}-2-(N-methyl-N-phenylcarbamoyloxy)phenyl-4-(p-methylphenyl)piperazine-1-carboxylate], under “48 h”, the viability at 5 µM stood at 75.3 ± 3.12%, the viability at 10 µM is 86.6 ± 2.39% and the viability at 20 µM came to 92.2 ± 3.05%.
